Results reported in patent US20190275088A1, “PRESERVATIVE SOLUTION FOR LIVE CELLS OR COMPOSITION CONTAINING LIVE CELLS” (TERUMO KABUSHIKI KAISHA, priority 2016, published 2019).

Assays:
[1] = system: sheet-shaped human skeletal myoblast cell culture; assay: Cell survival rate confirmation test, preservative solution based on physiological saline solution (PI staining, flow cytometry); conditions: 2° C. to 8° C.; for cell survival rate: three days
Method: (§1) The sheet-shaped cell cultures were prepared using skeletal myoblast cells (with fibroblast cells contained therein) prepared from a human skeletal muscle by a usual or known method. A cell mixture of human skeletal myoblast cells and human fibroblast cells suspended in a 20% human serum-containing DMEM/F12 medium (Thermo Fisher Scientific Inc.) was seeded at 3.7×10^6 cells/well on a temperature-responsive culture dish (UpCell® 12 well Multi-well, CellSeed Inc.), and was then subjected to the sheet-formation cultivation at 37° C. under 5% CO2 for 12 to 26 hours. After the sheet-formation cultivation, the medium was removed, 700 μL of HBSS (+) (Thermo Fisher Scientific Inc.) which was chilled to 4° C. was added, and then the resultant was left to stand for 10 minutes. Then, gentle pipetting was conducted such as to detach the sheet-shaped cell culture completely.
After the sheet-shaped cell culture was completely detached, HBSS (+) was removed, and a fresh supply of room-temperature HBSS (+) was added to conduct rinsing. Such a washing step was repeated four times.
The sheet-shaped cell culture left to stand under the refrigerated conditions in (1) above was put to measurement of cell survival rate. After the sheet-shaped cell culture left to stand in the preservative solution for a predetermined period was dissociated with a trypsin-like protease, the cells were dispensed into a FACS tube to be 3.5×10^5 cells, followed by centrifugation, and the supernatant was discarded. To the resultant was added 3 ml of 0.5% BAS-containing PBS solution, and, after rinsing the cells by vortex, centrifugation was conducted, the supernatant was removed, and 500 μL of a propidium iodide (PI, Becton Dickinson) prepared to a final concentration of 0.6 μg/mL by use of a 0.5% BSA-containing PBS solution was added and mixed. […] The analysis was conducted using a flow cytometer (Becton Dickinson), and the proportion of PI-unstained cells contained in the whole cells admixed with PI was measured. […]

[2] = system: sheet-shaped human skeletal myoblast cell culture; assay: Cell survival rate confirmation test, preservative solution based on Hanks' balanced salt solution HBSS (+) (PI staining, flow cytometry); conditions: 2° C. to 8° C.
Method: as §1, with “completely. The thus detached sheet-shaped cell culture naturally shrank.” for “completely.”
After the sheet-shaped cell culture was completely detached, HBSS (+) was removed, and a fresh supply of room-temperature HBSS (+) was added to conduct rinsing. […]
The sheet-shaped cell culture left to stand under the refrigerated conditions in (1) above was put to measurement of cell survival rate. […] The analysis was conducted using a flow cytometer (Becton Dickinson), and the proportion of PI-unstained cells contained in the whole cells admixed with PI was measured. […]

Compound	cell survival rate ([1]; 10 μM vitamin E in physiological saline solution)	cell survival rate ([1]; 100 μM vitamin E in physiological saline solution)	cell survival rate as compared to HBSS (+) not admixed with edaravone ([2]; 100 μM edaravone in HBSS (+), three days to seven days)	lowering in the number of live cells from three days to seven days of preservation, compared to edaravone-nonadded HBSS (+) ([2]; HBSS (+)-based edaravone-added preservative solution (100 μM))	cell survival rate as compared to the case of no addition of edaravone ([1]; 1 μM or 10 μM edaravone in physiological saline solution, five days)
tocopherol [vitamin E]	approximately 65%	approximately 65%			
CC1=NN(c2ccccc2)C(=O)C1 [edaravone, 3-methyl-1-phenyl-2-pyrazolin-5-one]			higher cell survival rate	restrained	increased
